# Measured values: the supplement of paper PMC9663587
# Tests used:
# LEE011/Ribociclib [1] = compound: T1, CN(C)C(=O)c1cc2cnc(Nc3ccc(N4CCNCC4)cn3)nc2n1C1CCCC1 [LEE011/Ribociclib]; assay: GR value, 72 h; higher = faster growth (1 = untreated, <0 = killing);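 note: breast cancer and non-malignant breast epithelial lines, nine half-log doses, viable cells counted by Hoechst and LIVE/DEAD dye imaging versus time-zero plates and DMSO controls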
# [2] = compound: CCc1cnn2c(NCc3ccc[n+]([O-])c3)cc(N3CCCC[C@H]3CCO)nc12; assay: as above
# [3] = compound: CCN1CCN(Cc2ccc(Nc3ncc(F)c(-c4cc(F)c5nc(C)n(C(C)C)c5c4)n3)nc2)CC1; assay: as above
# [4] = compound: CC(=O)c1c(C)c2cnc(Nc3ccc(N4CCNCC4)cn3)nc2n(C2CCCC2)c1=O; assay: as above
# BSJ-03-123 = compound: CC(=O)c1c(C)c2cnc(Nc3ccc(N4CCN(CCOCCOCCOCCNC(=O)COc5cccc6c5C(=O)N(C5CCC(=O)NC5=O)C6=O)CC4)cn3)nc2n(C2CCCC2)c1=O [BSJ-03-123]; assay: as above
# Neratinib/HKI272 = compound: CCOc1cc2ncc(C#N)c(Nc3ccc(OCc4ccccn4)c(Cl)c3)c2cc1NC(=O)/C=C/CN(C)C [Neratinib/HKI272]; assay: as above
# Flavopiridol [5] = compound: T2, CN1CC[C@H](c2c(O)cc(O)c3c(=O)cc(-c4ccccc4Cl)oc23)[C@H](O)C1 [Flavopiridol]; assay: as above
# THZ1 = compound: CN(C)C/C=C/C(=O)Nc1ccc(C(=O)Nc2cccc(Nc3ncc(Cl)c(-c4c[nH]c5ccccc45)n3)c2)cc1 [THZ1]; assay: as above
# LEE011/Ribociclib [6] = compound: T1, LEE011/Ribociclib; assay: increase in dead-cell fraction, 72 h; higher = more death;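 note: breast cancer cell lines in 384-well plates, stained with Hoechst plus LIVE/DEAD far red dye and imaged, cells above an LDR intensity threshold counted dead, Hoechst-negative corpses included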
# [7] = compound: CCN1CCN(Cc2ccc(Nc3ncc(F)c(-c4cc(F)c5nc(C)n(C(C)C)c5c4)n3)nc2)CC1; assay: as above
# [8] = compound: CC(=O)c1c(C)c2cnc(Nc3ccc(N4CCNCC4)cn3)nc2n(C2CCCC2)c1=O; assay: as above
# Flavopiridol [9] = compound: T2, Flavopiridol; assay: as above
cell line,measurement,setting,value
MDAMB436,GR value,LEE011/Ribociclib [1]; 0.001 µM,0.982 GR
same,GR value,LEE011/Ribociclib [1]; 0.003162 µM,1.05 GR
same,GR value,LEE011/Ribociclib [1]; 0.01 µM,1.06 GR
same,GR value,LEE011/Ribociclib [1]; 0.03162 µM,1.08 GR
same,GR value,LEE011/Ribociclib [1]; 0.1 µM,0.913 GR
same,GR value,LEE011/Ribociclib [1]; 0.3162 µM,1.03 GR
same,GR value,LEE011/Ribociclib [1]; 1 µM,0.95 GR
same,GR value,LEE011/Ribociclib [1]; 3.162 µM,0.982 GR
same,GR value,LEE011/Ribociclib [1]; 10 µM,0.951 GR
same,GR value,[2]; 0.0001 µM,0.969 GR
same,GR value,[2]; 0.0003162 µM,1.01 GR
same,GR value,[2]; 0.001 µM,1.07 GR
same,GR value,[2]; 0.003162 µM,1.11 GR
same,GR value,[2]; 0.01 µM,0.868 GR
same,GR value,[2]; 0.03162 µM,-0.101 GR
same,GR value,[2]; 0.1 µM,-0.124 GR
same,GR value,[2]; 0.3162 µM,-0.0986 GR
same,GR value,[2]; 1 µM,-0.15 GR
same,GR value,[3]; 0.001 µM,1.04 GR
same,GR value,[3]; 0.003162 µM,1 GR
same,GR value,[3]; 0.01 µM,1.04 GR
same,GR value,[3]; 0.03162 µM,1.03 GR
same,GR value,[3]; 0.1 µM,1.02 GR
same,GR value,[3]; 0.3162 µM,1 GR
same,GR value,[3]; 1 µM,0.719 GR
same,GR value,[3]; 3.162 µM,0.337 GR
same,GR value,[3]; 10 µM,-0.322 GR
same,GR value,[4]; 0.0003162 µM,1.06 GR
same,GR value,[4]; 0.001 µM,1.04 GR
same,GR value,[4]; 0.003162 µM,1.03 GR
same,GR value,[4]; 0.01 µM,1.04 GR
same,GR value,[4]; 0.03162 µM,0.977 GR
same,GR value,[4]; 0.1 µM,1.03 GR
same,GR value,[4]; 0.3162 µM,1.01 GR
same,GR value,[4]; 1 µM,1.09 GR
same,GR value,[4]; 3.162 µM,1.02 GR
same,GR value,BSJ-03-123; 0.001 µM,1.1 GR
same,GR value,BSJ-03-123; 0.003162 µM,1.07 GR
same,GR value,BSJ-03-123; 0.01 µM,1.02 GR
same,GR value,BSJ-03-123; 0.03162 µM,1.03 GR
same,GR value,BSJ-03-123; 0.1 µM,1.11 GR
same,GR value,BSJ-03-123; 0.3162 µM,0.971 GR
same,GR value,BSJ-03-123; 1 µM,0.999 GR
same,GR value,BSJ-03-123; 3.162 µM,0.966 GR
same,GR value,BSJ-03-123; 10 µM,-0.0484 GR
same,GR value,Neratinib/HKI272; 0.0003162 µM,1 GR
same,GR value,Neratinib/HKI272; 0.001 µM,0.997 GR
same,GR value,Neratinib/HKI272; 0.003162 µM,1.03 GR
same,GR value,Neratinib/HKI272; 0.01 µM,1.04 GR
same,GR value,Neratinib/HKI272; 0.03162 µM,0.993 GR
same,GR value,Neratinib/HKI272; 0.1 µM,0.878 GR
same,GR value,Neratinib/HKI272; 0.3162 µM,0.641 GR
same,GR value,Neratinib/HKI272; 1 µM,0.43 GR
same,GR value,Neratinib/HKI272; 3.162 µM,0.0253 GR
same,GR value,Flavopiridol [5]; 0.0001 µM,0.988 GR
same,GR value,Flavopiridol [5]; 0.0003162 µM,0.97 GR
same,GR value,Flavopiridol [5]; 0.001 µM,0.97 GR
same,GR value,Flavopiridol [5]; 0.003162 µM,0.889 GR
same,GR value,Flavopiridol [5]; 0.01 µM,1.01 GR
same,GR value,Flavopiridol [5]; 0.03162 µM,0.905 GR
same,GR value,Flavopiridol [5]; 0.1 µM,0.701 GR
same,GR value,Flavopiridol [5]; 0.3162 µM,0.125 GR
same,GR value,Flavopiridol [5]; 1 µM,-0.0603 GR
same,GR value,THZ1; 0.0001 µM,0.928 GR
same,GR value,THZ1; 0.0003162 µM,1.07 GR
same,GR value,THZ1; 0.001 µM,1.03 GR
same,GR value,THZ1; 0.003162 µM,1.02 GR
same,GR value,THZ1; 0.01 µM,1.1 GR
same,GR value,THZ1; 0.03162 µM,1.02 GR
same,GR value,THZ1; 0.1 µM,0.478 GR
same,GR value,THZ1; 0.3162 µM,0.229 GR
same,GR value,THZ1; 1 µM,-0.138 GR
same,increase in dead-cell fraction,LEE011/Ribociclib [6]; 0.001 µM,-0.0008
same,increase in dead-cell fraction,LEE011/Ribociclib [6]; 0.003162 µM,-0.0095
same,increase in dead-cell fraction,LEE011/Ribociclib [6]; 0.01 µM,-0.0034
same,increase in dead-cell fraction,LEE011/Ribociclib [6]; 0.03162 µM,-0.0032
same,increase in dead-cell fraction,LEE011/Ribociclib [6]; 0.1 µM,0.0007
same,increase in dead-cell fraction,LEE011/Ribociclib [6]; 0.3162 µM,-0.0014
same,increase in dead-cell fraction,LEE011/Ribociclib [6]; 1 µM,-0.0035
same,increase in dead-cell fraction,LEE011/Ribociclib [6]; 3.162 µM,-0.0137
same,increase in dead-cell fraction,LEE011/Ribociclib [6]; 10 µM,0.0049
same,increase in dead-cell fraction,[7]; 0.001 µM,0.0024
same,increase in dead-cell fraction,[7]; 0.003162 µM,-0.005
same,increase in dead-cell fraction,[7]; 0.01 µM,0.0007
same,increase in dead-cell fraction,[7]; 0.03162 µM,-0.0009
same,increase in dead-cell fraction,[7]; 0.1 µM,0.0076
same,increase in dead-cell fraction,[7]; 0.3162 µM,0.0116
same,increase in dead-cell fraction,[7]; 1 µM,0.0346
same,increase in dead-cell fraction,[7]; 3.162 µM,0.0531
same,increase in dead-cell fraction,[7]; 10 µM,0.316
same,increase in dead-cell fraction,[8]; 0.0003162 µM,-0.0017
same,increase in dead-cell fraction,[8]; 0.001 µM,0.0024
same,increase in dead-cell fraction,[8]; 0.003162 µM,-0.0027
same,increase in dead-cell fraction,[8]; 0.01 µM,-0.0025
same,increase in dead-cell fraction,[8]; 0.03162 µM,0
same,increase in dead-cell fraction,[8]; 0.1 µM,0.0005
same,increase in dead-cell fraction,[8]; 0.3162 µM,-0.0024
same,increase in dead-cell fraction,[8]; 1 µM,-0.0052
same,increase in dead-cell fraction,[8]; 3.162 µM,0.0044
same,increase in dead-cell fraction,Flavopiridol [9]; 0.0001 µM,0.003
same,increase in dead-cell fraction,Flavopiridol [9]; 0.0003162 µM,-0.0059
same,increase in dead-cell fraction,Flavopiridol [9]; 0.001 µM,-0.0173
same,increase in dead-cell fraction,Flavopiridol [9]; 0.003162 µM,0.0048
same,increase in dead-cell fraction,Flavopiridol [9]; 0.01 µM,-0.0068
same,increase in dead-cell fraction,Flavopiridol [9]; 0.03162 µM,-0.002
same,increase in dead-cell fraction,Flavopiridol [9]; 0.1 µM,0.0119
same,increase in dead-cell fraction,Flavopiridol [9]; 0.3162 µM,0.0798
same,increase in dead-cell fraction,Flavopiridol [9]; 1 µM,0.0954
